Literature values as cited in patent US20170003257A1, “WETNESS INDICATOR WITH TWO COLORANTS AND TWO STABILIZERS” (The Procter & Gamble Company, priority 2015, published 2017).
Like-named read-outs stand apart in the source and are kept apart here.

Columns and labels:
[1] = Table 2 stabilizers; for pKa (1): first pKa; for pKa (2): second pKa; for pKa (3): third pKa

SMILES	pKa (1) [1]	pKa (2) [1]	also measured
CC(C)CCC(=O)O [4-Methylpentanoic acid]	4.8	–	–
O=C(O)c1ccncc1 [4-Pyridinecarboxylic acid]	5.0	–	–
CC(=O)CC(=O)O [Acetoacetic acid]	3.6	–	–
N=C(N)NCCC[C@H](N)C(=O)O [Arginine]	1.8	–	–
O=C1O[C@H]([C@@H](O)CO)C(O)=C1O [Ascorbic acid]	–	11.8	–
C[N+](C)(C)CC(=O)O [Betaine]	1.83	–	–
OB(O)O [Boric acid]	9.3	12.7	pKa (3) [1]: 13.8
Oc1ccccc1O [Catechol]	9.4	12.8	–
CCCCCCCCCCN [Decylamine]	10.6	–	–
CC(=NO)C(C)=NO [Dimethylglyoxime]	10.7	12.0	–
O=C(O)c1cncc(C(=O)O)c1 [Dinicotinic acid]	2.8	–	–
NCCN [Ethylenediamine]	6.8	–	–
O=C(O)CN(CCN(CC(=O)O)CC(=O)O)CC(=O)O [Ethylenediaminetetraacetic acid (EDTA), Ethylenediaminetetraacetic acid]	−0.21	1.5	pKa (5) ([1]; fifth pKa): 6.7; pKa (4) ([1]; fourth pKa): 3.1; pKa (3) [1]: 2.2
O=C(O)C(O)CO (stereo not shown) [Glyceric acid]	3.5	–	–
O=CC(=O)O [Glyoxylic acid]	3.2	–	–
O=C(O)CCCCCC(=O)O [Heptanedioic acid]	4.7	–	–
CCCCCCCN [Heptylamine]	10.7	–	–
NCCCCCCN [Hexamethylenediamine]	11.9	10.8	–

SMILES	pKa (1) [1]	pKa (2) [1]	also measured
CCCCCCN [Hexylamine]	10.6	–	–
Oc1ccc(O)cc1 [Hydroquinone]	10.3	–	–
CN(C)c1ccc(C(=C2C=CC(=[N+](C)C)C=C2)c2ccccc2)cc1 [Malachite Green]	–	–	pKa (Alkaline pH range): 12.8
CC[N+](CC)=c1ccc2nc3c(cc(N)c4ccccc43)oc-2c1 [Nile Blue]	–	–	pKa (Table 1 colorants): 9.7
N[C@@H](Cc1ccccc1)C(=O)O [Phenylalanine]	–	9.3	–
NC(C(=O)O)c1ccccc1 (stereo not shown) [Phenylglycine]	1.8	4.4	–
O=C(O)c1ccccn1 [Picolinic acid]	1.1	5.2	–
Oc1ccccc1O [Pyrocatechol]	9.4	12.8	–
O=c1ccc2[n+]([O-])c3ccc(O)cc3oc-2c1 [Resazurin]	–	–	pKa (Table 1 colorants): 5.1
Oc1cccc(O)c1 [Resorcinol]	9.3	11.1	–
N[C@@H](CO)C(=O)O [Serine]	–	9.0	–
O=S(O)O [Sulfurous acid]	–	7.2	–
Cc1cc(O)c(C(C)C)cc1C1(c2cc(C(C)C)c(O)cc2C)OC(=O)c2ccccc21 [Thymolphthalein]	–	–	pKa (Table 1 colorants): 9.8
NCCc1ccc(O)cc1 [Tyramine]	9.8	10.5	–
O=c1[nH]c(=O)c2[nH]c(=O)[nH]c2[nH]1 [Uric acid]	3.9	–	–
Cc1ccccc1C(=O)O [o-Toluic acid]	3.9	–	–
Cc1ccc(C(=O)O)cc1 [p-Toluic acid]	4.4	–	–
